Entries after “also recorded” stand apart in the source; their conditions may differ.
System: OK6>SCA1 flies
Assay: Chemical therapy on hSCA1 Drosophila: lifespan on medium supplemented with CHK1 inhibitor
Format: in vivo
Conditions: adult flies
Experimental: FIG. 29 is a graph showing the results of a lifespan analysis of OK6>SCA1 flies fed on media supplemented with a CHK1 inhibitor (CHIR-124). The statistical analysis of the average values of the lifespan was performed by log-rank test.
A CHK1-specific inhibitor, CHIR-124 (manufactured by AXON MEDCHEM), was dissolved at 5 mg/mL in 1N hydrogen chloride and diluted to multiple concentrations with 0.05 N solution. Note that the medium used here was a 1:1 mixture of Instant Drosophila medium D7670 (manufactured by Sigma Aldrich) and Formula 4-24 Instant Drosophila medium (manufactured by Calolina). As a control, a medium to which an equal amount of 0.05 N hydrogen chloride solution was added was also prepared.
In this respect, whether or not the inhibition of a signal mediated by CHK1 mitigates the lifespan shortening in the SCA1 fly model was examined. Specifically, a CHK1-specific inhibitor (CHIR-124) was used. This inhibitor was added to feed (corn-meal medium) at multiple concentrations, and adult flies were fed on the feed. As a result, the lifespan of OK6>SCA1 was improved at 0.00016 mg/mL and 0.02 mg/mL (see FIG. 29). In addition, the improvement effect was more remarkable in an example where the inhibitor was given at a higher concentration. The lifespan of the flies treated with CHIR-124 at 0.02 mg/mL was elongated by 35% (see FIG. 29).

## O=c1[nH]c2ccc(Cl)cc2c(N[C@@H]2CN3CCC2CC3)c1-c1nc2ccccc2[nH]1 [CHIR-124, 4-[((3S)-1-azabicyclo[2.2.2]oct-3-yl)amino]-3-(1H-benzimidazol-2-yl)-6-chloroquinolin-2(1H)-one]
0.00016 mg/mL in feed
  lifespan of OK6>SCA1: improved
0.02 mg/mL in feed
  lifespan elongation: 35%
  lifespan of OK6>SCA1: ameliorated the lifespan-shortening; also recorded: improved

Source: patent US10989719B2, “Methods for treating spinocerebellar ataxia type I using RPA1” (National University Corporation Tokyo Medical and Dental …, priority 2013, dated 2021)
